The values that follow come from US7803816B2, “MCH receptor antagonists” (Hoffmann-La Roche Inc., priority 2005, dated 2010).

Structures can show the parent of a compound that is named as a salt.

T1 sequence (Q99705 whole entry): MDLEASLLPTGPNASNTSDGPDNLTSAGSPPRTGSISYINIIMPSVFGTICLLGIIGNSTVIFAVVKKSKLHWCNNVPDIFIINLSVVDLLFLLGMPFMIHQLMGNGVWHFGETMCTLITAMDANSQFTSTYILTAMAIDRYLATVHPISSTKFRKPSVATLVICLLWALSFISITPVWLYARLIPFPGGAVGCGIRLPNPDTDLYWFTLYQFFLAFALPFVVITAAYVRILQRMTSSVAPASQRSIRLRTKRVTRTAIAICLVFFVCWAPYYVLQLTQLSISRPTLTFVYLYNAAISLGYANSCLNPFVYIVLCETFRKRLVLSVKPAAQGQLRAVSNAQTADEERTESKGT

One assay has as its target T1, recombinant human MCHR1-receptors (Homo sapiens, UniProt Q99705).
T1 construct: expressed in transfected cells
The assay can be described thus: MCHR filter binding assay (competition binding). To be noted: membranes from CHO-K1 cells expressing human MCHR1; 0.2 nM [Phe13,[125I]Tyr19]-MCH; read-out: IC50 (nM), in vitro activity (binding assay). Summed up: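 Membranes from CHO-K1 cells stably expressing human MCHR1 (2.8 μg) preincubated 15 min with competitor, then 1 h at rt with 0.2 nM [Phe13,[125I]Tyr19]-MCH in HEPES/CaCl2/BSA/phenanthroline/Triton buffer. Bound radioactivity counted after rapid filtration over PVP/BSA-treated GF/B filters.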
With `CO[C@H]1CN(C[C@H]2Cc3ccc(NC(=O)C(C)C)cc3C2)CC[C@@H]1n1c(C)nc2cc(C)ccc21` [Example 49, N-{(S)-2-[(3S,4S)-4-(2,5-Dimethyl-benzoimidazol-1-yl)-3-methoxy-piperidin-1-ylmethyl]-indan-5-yl}-isobutyramide], the concentration for half-maximal inhibition (IC50) lay within 20 to 200 nM. Consider `Cc1ccc2c(c1)nc(C(C)(C)O)n2C1CCN(C[C@H]2Cc3ccc(Br)cc3C2)CC1` [Example 99, 2-{1-[1-((S)-5-Bromo-indan-2-ylmethyl)-piperidin-4-yl]-5-methyl-1H-benzoimidazol-2-yl}-propan-2-ol], for which the IC50 was less than 20 nM. In the case of `CO[C@@H]1CN(C[C@@H]2Cc3ccc(Br)cc3C2)CC[C@H]1n1c(C(C)C)nc2cc(C)ccc21` [Example 89, 1-[(3R,4R)-1-((R)-5-Bromo-indan-2-ylmethyl)-3-methoxy-piperidin-4-yl]-2-isopropyl-5-methyl-1H-benzoimidazole], the IC50 was in the range of 20 to 200 nM. As to `CCCC(=O)Nc1ccc2c(c1)C[C@@H](CN1CCC(n3c(C)nc4cc(C)ccc43)CC1)C2` [Example 44, -{(S)-2-[4-(2,5-Dimethyl-benzoimidazol-1-yl)-piperidin-1-ylmethyl]-indan-5-yl}-butyramide], the IC50 was in the range of 20 to 200 nM. As to `CCC(=O)Nc1ccc2c(c1)C[C@H](CN1CC[C@@H](n3c(C(C)C)nc4cc(C)ccc43)[C@H](O)C1)C2` [Example 84, N-{(R)-2-[(3R,4R)-3-Hydroxy-4-(2-isopropyl-5-methyl-benzoimidazol-1-yl)-piperidin-1-ylmethyl]-indan-5-yl}-propionamide], the IC50 is less than 20 nM.

Turning to `Cc1ccc2c(c1)nc(C)n2C1CCN(CC2=Cc3ccc(NC(=O)C(C)C)cc3C2)CC1` [Example 53, N-{2-[4-(2,5-Dimethyl-benzoimidazol-1-yl)-piperidin-1-ylmethyl]-3H-inden-5-yl}-isobutyramide], the half-maximal inhibitory concentration (IC50) lay within 20 to 200 nM.

In the case of `Cc1ccc2c(c1)nc(C)n2C1CCN(C[C@@H]2Cc3ccc(NC(=O)C(C)C)cc3C2)CC1O` (stereo partly drawn) [Example 27, N-{(R)-2-[4-(2,5-Dimethyl-benzoimidazol-1-yl)-3-hydroxy-piperidin-1-ylmethyl]-indan-5-yl}-isobutyramide; dihydrochloride], the half-maximal inhibitory concentration (IC50) lay within 200 to 5000 nM. For `CO[C@H]1CN(C[C@@H]2Cc3ccc(NC(=O)C4CC4)cc3C2)CCC1n1c(C2CC2)nc2cc(C)ccc21` (stereo in doubt) [Example 66, Cyclopropanecarboxylic acid {(R)-2-[(3S,4S)-4-(2-cyclopropyl-5-methyl-benzoimidazol-1-yl)-3-methoxy-piperidin-1-ylmethyl]-indan-5-yl}-amide], the IC50 is less than 20 nM. Still for that read-out and setting: next, `CO[C@@H]1CN(CC2Cc3ccc(F)cc3C2)CC[C@H]1n1cnc2cc(C)ccc21` (stereo partly drawn) [Example 118, 1-[(3R,4R)-1-(5-Fluoro-indan-2-ylmethyl)-3-methoxy-piperidin-4-yl]-5-methyl-1H-benzoimidazole]: 200 to 5000 nM; `CO[C@H]1CN(C[C@H]2Cc3ccc(Br)cc3C2)CC[C@@H]1n1c(C(C)C)nc2cc(C)ccc21` [Example 17, 1-[(3S,4S)-1-((S)-5-Bromo-indan-2-ylmethyl)-3-methoxy-piperidin-4-yl]-2-isopropyl-5-methyl-1H-benzoimidazole]: 20 to 200 nM; `Cc1ccc2c(c1)nc(-c1ccccc1)n2C1CCN(C[C@@H]2Cc3ccc(N)cc3C2)CC1` [Example 52, (R)-2-[4-(5-Methyl-2-phenyl-benzoimidazol-1-yl)-piperidin-1-ylmethyl]-indan-5-ylamine]: 20 to 200 nM.

The same assay, now with this note: membranes from CHO-K1 cells expressing human MCHR1; 0.2 nM [Phe13,[125I]Tyr19]-MCH; read-out: IC50 (nM), selected in vitro MCH-R binding data.
Consider `Cc1ccc2c(c1)nc(C(C)(C)O)n2[C@@H]1CCN(C[C@H]2Cc3ccc(Br)cc3C2)CC1O` (stereo in doubt) [Example 126, (3R,4R)-1-((S)-5-Bromo-indan-2-ylmethyl)-4-[2-(1-hydroxy-1-methyl-ethyl)-5-methyl-benzoimidazol-1-yl]-piperidin-3-ol], for which the IC50 was 2 nM. Turning to `CO[C@H]1CN(C[C@@H]2Cc3ccc(NC(=O)C4CC4)cc3C2)CCC1n1c(C2CC2)nc2cc(C)ccc21` (stereo in doubt) [Example 66, Cyclopropanecarboxylic acid {(R)-2-[(3S,4S)-4-(2-cyclopropyl-5-methyl-benzoimidazol-1-yl)-3-methoxy-piperidin-1-ylmethyl]-indan-5-yl}-amide], the IC50 stood at 12 nM.
